The values below come from ChEMBL document CHEMBL5291721, “A preclinical secondary pharmacology resource illuminates target-adverse drug reaction associations of marketed drugs” (Nat Commun, 2023).

The target of series [1] is Sodium-dependent noradrenaline transporter (Homo sapiens, UniProt P23975).
The target in series [2] is T1, Alpha-1A adrenergic receptor (Homo sapiens, UniProt P35348).
T1 sequence (P35348 whole entry): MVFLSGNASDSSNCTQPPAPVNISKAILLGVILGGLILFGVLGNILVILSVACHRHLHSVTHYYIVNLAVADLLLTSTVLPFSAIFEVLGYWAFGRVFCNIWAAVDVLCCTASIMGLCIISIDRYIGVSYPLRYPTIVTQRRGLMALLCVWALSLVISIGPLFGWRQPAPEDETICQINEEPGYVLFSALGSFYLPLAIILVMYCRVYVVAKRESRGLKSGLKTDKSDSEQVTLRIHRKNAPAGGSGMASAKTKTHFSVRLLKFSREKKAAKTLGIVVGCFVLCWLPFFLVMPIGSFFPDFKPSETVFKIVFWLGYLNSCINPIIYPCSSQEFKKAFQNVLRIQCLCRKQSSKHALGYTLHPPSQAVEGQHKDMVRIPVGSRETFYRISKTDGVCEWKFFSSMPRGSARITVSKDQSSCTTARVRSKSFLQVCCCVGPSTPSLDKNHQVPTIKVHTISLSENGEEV
Type of series: functional, cell-based.

Series [3] has as its target T2, Muscarinic acetylcholine receptor M2 (Homo sapiens, UniProt P08172).
T2 sequence (P08172 whole entry): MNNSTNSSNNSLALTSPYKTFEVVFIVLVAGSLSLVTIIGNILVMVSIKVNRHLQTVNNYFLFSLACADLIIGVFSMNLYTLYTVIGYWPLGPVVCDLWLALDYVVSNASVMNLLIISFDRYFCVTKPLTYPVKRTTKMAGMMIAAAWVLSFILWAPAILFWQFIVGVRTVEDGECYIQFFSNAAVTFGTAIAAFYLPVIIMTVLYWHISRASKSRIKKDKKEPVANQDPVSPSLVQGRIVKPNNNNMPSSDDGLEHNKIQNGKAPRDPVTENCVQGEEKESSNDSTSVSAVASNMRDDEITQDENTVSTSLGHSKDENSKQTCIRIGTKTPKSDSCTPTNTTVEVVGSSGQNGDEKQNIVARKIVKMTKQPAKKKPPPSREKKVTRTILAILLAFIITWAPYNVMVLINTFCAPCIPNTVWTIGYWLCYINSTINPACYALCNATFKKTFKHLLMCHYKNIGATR
Type of series: functional, cell-based.

Series [4] has as its target cGMP-inhibited 3',5'-cyclic phosphodiesterase 3A (Homo sapiens, UniProt Q14432). It is filed as functional.
Series [5] concerns the target Voltage-gated inwardly rectifying potassium channel KCNH2 (Homo sapiens, UniProt Q12809). Type of series: functional.
Series [6] addresses Vasopressin V2 receptor (Homo sapiens, UniProt P30518).
Series [7] deals with T3, Adenosine receptor A1 (Homo sapiens, UniProt P30542).
T3 sequence (P30542 whole entry): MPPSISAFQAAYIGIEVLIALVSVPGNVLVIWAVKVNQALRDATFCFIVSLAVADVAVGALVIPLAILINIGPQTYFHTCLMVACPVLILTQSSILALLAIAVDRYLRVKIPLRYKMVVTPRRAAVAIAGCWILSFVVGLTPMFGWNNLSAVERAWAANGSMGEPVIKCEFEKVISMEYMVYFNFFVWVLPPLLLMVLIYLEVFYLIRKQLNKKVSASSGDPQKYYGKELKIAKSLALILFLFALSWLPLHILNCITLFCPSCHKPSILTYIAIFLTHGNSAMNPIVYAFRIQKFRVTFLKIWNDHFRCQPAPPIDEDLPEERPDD

Series [8] has as its target Motilin receptor (Homo sapiens, UniProt O43193).
Series [9] has as its target T4, Neuropeptide Y receptor type 1 (Homo sapiens, UniProt P25929).
T4 sequence (P25929 whole entry): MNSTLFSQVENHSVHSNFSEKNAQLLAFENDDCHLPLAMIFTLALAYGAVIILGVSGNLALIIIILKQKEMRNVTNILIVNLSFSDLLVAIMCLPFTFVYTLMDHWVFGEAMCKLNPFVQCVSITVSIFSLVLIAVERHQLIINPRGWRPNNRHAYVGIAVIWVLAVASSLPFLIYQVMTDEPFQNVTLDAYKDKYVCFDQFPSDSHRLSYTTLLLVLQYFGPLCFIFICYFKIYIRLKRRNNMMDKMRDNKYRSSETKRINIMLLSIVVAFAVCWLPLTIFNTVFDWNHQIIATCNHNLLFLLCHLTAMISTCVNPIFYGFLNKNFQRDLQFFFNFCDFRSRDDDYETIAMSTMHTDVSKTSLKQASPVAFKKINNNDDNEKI

Series [10] deals with T5, Prostaglandin G/H synthase 1 (Rattus norvegicus, UniProt Q63921).
T5 sequence (Q63921 whole entry): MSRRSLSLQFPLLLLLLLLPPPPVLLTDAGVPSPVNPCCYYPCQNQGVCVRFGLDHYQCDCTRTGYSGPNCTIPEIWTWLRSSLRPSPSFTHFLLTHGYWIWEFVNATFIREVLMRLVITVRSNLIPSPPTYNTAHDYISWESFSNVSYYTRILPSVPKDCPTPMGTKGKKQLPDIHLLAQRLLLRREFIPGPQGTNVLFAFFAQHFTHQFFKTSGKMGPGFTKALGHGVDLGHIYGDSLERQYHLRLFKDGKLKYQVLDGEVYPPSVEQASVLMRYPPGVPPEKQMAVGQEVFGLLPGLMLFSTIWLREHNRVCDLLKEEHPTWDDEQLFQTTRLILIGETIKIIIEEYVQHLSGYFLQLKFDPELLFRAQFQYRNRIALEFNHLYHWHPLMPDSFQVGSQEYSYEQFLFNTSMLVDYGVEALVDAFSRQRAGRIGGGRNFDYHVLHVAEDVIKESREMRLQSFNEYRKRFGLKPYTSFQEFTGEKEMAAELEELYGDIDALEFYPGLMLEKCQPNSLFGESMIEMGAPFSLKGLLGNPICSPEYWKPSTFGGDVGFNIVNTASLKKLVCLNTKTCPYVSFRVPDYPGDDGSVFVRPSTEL
Type of series: functional.

Broadly, the AC50 is the midpoint of the concentration-response curve, whichever way the signal moves.
Further: assay procedure not described here.

Chain of Vasopressin V2 receptor (P30518 whole entry): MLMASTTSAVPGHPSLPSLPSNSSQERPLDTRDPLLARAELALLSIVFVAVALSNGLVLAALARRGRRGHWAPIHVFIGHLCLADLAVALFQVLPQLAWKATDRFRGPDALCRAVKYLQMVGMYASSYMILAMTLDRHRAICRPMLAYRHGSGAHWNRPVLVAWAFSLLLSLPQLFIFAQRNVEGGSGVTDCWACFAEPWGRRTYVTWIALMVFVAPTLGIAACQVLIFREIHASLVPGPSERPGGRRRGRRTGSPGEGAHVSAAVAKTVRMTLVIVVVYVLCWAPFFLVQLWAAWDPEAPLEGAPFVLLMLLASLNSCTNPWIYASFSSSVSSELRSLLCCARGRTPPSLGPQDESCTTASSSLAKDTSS
Chain of Voltage-gated inwardly rectifying potassium channel KCNH2 (Q12809 whole entry): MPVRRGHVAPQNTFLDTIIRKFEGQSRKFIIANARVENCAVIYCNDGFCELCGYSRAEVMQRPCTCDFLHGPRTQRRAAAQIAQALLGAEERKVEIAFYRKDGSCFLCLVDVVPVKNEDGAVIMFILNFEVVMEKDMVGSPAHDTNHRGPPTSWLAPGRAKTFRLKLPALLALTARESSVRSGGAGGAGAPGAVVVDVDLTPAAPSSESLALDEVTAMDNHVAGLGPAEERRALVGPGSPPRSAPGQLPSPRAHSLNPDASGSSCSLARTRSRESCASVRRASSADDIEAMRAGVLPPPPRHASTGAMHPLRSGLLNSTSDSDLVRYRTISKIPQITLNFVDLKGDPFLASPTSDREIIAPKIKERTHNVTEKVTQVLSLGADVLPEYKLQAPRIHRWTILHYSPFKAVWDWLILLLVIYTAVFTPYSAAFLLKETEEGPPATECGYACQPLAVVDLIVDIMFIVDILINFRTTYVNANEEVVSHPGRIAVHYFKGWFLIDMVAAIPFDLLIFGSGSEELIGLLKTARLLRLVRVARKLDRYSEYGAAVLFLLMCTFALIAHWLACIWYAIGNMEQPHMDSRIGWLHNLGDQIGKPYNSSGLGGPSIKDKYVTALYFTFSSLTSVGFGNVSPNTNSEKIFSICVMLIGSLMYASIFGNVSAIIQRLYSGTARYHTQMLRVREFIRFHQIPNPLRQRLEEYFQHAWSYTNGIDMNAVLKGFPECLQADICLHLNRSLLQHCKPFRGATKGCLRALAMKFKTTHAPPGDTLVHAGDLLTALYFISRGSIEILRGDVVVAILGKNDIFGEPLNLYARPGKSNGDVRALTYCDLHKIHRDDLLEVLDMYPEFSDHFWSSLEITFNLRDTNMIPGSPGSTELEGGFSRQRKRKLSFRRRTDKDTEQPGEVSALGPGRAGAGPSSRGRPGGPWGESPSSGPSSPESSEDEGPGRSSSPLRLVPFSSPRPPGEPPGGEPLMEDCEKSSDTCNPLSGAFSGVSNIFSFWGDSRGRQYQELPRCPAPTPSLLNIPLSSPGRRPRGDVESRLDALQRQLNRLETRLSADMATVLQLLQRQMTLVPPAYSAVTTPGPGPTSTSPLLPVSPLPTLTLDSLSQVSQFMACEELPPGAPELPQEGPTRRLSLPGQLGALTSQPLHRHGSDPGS
Chain of Sodium-dependent noradrenaline transporter (P23975 whole entry): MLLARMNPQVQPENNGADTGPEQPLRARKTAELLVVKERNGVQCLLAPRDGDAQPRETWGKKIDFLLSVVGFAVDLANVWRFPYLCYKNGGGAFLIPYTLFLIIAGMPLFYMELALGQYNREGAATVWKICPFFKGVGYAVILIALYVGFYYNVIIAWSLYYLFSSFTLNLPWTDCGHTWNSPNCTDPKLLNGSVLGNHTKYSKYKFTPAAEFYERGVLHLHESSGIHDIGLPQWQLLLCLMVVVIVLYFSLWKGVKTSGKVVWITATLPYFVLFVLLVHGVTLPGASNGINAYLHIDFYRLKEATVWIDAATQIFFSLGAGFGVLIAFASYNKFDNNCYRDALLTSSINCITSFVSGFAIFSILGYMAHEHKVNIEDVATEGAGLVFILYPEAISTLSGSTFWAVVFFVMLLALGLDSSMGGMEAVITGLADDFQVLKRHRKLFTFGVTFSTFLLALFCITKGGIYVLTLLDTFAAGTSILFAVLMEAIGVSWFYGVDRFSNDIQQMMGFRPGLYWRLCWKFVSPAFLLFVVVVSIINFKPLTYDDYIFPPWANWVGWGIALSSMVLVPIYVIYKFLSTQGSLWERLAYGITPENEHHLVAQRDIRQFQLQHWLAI
Chain of Motilin receptor (O43193 whole entry): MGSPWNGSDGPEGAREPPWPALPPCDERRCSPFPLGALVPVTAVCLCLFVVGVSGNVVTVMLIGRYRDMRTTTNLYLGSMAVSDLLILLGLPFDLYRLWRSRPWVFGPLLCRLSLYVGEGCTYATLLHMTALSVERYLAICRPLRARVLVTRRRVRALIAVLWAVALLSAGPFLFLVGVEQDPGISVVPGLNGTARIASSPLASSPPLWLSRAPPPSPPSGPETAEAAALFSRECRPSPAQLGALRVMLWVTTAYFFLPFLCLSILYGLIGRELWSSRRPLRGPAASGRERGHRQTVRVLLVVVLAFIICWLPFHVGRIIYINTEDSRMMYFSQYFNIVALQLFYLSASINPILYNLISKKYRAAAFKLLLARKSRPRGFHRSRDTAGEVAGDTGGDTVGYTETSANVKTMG
Chain of cGMP-inhibited 3',5'-cyclic phosphodiesterase 3A (Q14432 whole entry): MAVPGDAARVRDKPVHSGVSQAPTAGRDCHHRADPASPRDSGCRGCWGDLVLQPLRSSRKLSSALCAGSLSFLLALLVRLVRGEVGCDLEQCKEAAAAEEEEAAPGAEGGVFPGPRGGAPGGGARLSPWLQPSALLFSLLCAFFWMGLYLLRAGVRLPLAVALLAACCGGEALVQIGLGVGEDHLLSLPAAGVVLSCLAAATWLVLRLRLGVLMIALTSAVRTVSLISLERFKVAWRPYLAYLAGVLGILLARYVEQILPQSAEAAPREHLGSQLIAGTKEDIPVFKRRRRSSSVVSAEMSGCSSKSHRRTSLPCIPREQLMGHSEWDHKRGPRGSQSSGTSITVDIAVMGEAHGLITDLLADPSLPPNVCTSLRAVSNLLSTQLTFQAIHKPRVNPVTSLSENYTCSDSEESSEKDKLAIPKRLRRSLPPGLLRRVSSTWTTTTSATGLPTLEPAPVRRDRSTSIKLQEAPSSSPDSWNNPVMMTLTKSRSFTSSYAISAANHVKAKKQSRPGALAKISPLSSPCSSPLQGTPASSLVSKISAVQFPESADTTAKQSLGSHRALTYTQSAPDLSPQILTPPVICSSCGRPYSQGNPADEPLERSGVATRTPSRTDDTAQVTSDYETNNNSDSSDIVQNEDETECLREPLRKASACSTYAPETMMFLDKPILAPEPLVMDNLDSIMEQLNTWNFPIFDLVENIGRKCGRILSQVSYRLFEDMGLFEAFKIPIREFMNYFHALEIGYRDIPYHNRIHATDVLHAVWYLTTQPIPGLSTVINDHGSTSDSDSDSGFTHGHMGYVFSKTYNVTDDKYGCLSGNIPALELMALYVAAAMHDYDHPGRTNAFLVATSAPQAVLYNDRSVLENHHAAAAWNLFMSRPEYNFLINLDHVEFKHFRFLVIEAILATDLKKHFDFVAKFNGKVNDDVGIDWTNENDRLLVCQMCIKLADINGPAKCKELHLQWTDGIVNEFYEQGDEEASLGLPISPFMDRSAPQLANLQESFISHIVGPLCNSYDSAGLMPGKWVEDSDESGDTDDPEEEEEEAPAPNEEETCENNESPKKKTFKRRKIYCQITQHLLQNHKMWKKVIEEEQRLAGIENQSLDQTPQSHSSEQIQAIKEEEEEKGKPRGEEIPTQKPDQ

For the compound `CC/C(=C(\c1ccccc1)c1ccc(OCCN(C)C)cc1)c1ccccc1` [TAMOXIFEN], the AC50 in [1] was 8.83 µM; in series [2] it was above 30 µM; in series [3], above 10 µM.
With `COc1ccc2c3c1O[C@H]1[C@@H](O)CC[C@H]4[C@@H](C2)N(C)CC[C@@]341` [DIHYDROCODEINE], the AC50 in series [2], in [4] and in [5] (read-out: AC50) was above 30 µM throughout.
Regarding `O=C1C(O)=C([C@H]2CC[C@H](c3ccc(Cl)cc3)CC2)C(=O)c2ccccc21` [ATOVAQUONE], the AC50 in series [6], in [1], in [2], in [4], in series [7] and in series [8] was above 30 µM in each case. The AC50 in [5] (read-out: AC50), in series [3], in [9] and in series [10] was above 30 µM in each case.
Consider `Clc1ccccc1C(c1ccccc1)(c1ccccc1)n1ccnc1` [CLOTRIMAZOLE], for which the AC50 in [1] was 19.9 µM; in series [2] it was above 30 µM; in [3], above 10 µM.
With `Cc1c(OCC(F)(F)F)ccnc1C[S+]([O-])c1nc2ccccc2[nH]1` (stereo not given) [LANSOPRAZOLE], the half-maximal activity concentration (AC50) in series [6] was above 30 µM; in series [1] it was above 10 µM; in series [2], above 30 µM; in series [4] it was above 10 µM; in series [7], 16.8 µM; in series [8] it was above 10 µM. Further, the AC50 was above 30 µM in series [5] (read-out: AC50), above 10 µM in [3], 24.5 µM in series [9] and above 30 µM in [10].
Take `C[C@H]1COc2c(C3(N)CC3)c(F)cc3c(=O)c(C(=O)O)cn1c23` [PAZUFLOXACIN]: the AC50 in series [6] is above 10 µM; in [1] it was above 10 µM; in series [4], above 30 µM; in series [7] it was above 10 µM; in series [8] it was above 10 µM; in series [5] (read-out: AC50), above 30 µM. Further, the AC50 in series [3] was above 10 µM; in series [9] it was above 10 µM; in series [10], above 30 µM.
Take `CC(CC1c2ccccc2CCc2ccccc21)CN(C)C` (stereo not given) [BUTRIPTYLINE]: the AC50 in series [2] is above 30 µM; in series [4], above 30 µM; in series [5] (read-out: AC50), 2.1 µM.
Regarding `Cc1nnc2n1-c1ccc(Cl)cc1C(c1ccccc1Cl)=NC2` [TRIAZOLAM], the AC50 in series [6] was above 30 µM; in [1], above 30 µM; in [2] it was 14 µM; in [4], above 30 µM; in series [7], above 30 µM; in [8], above 10 µM. In addition, the half-maximal activity concentration (AC50) was above 30 µM in series [5] (read-out: AC50), above 10 µM in series [3], above 30 µM in series [9] and above 30 µM in [10].
As to `C#C[C@]1(O)CC[C@H]2[C@@H]3[C@H](C)CC4=C(CCC(=O)C4)[C@H]3CC[C@@]21C` [TIBOLONE], the AC50 in series [6], in series [1], in series [2], in [4], in series [7] and in series [8] was above 30 µM throughout. For the same compound, the AC50 is above 30 µM in [5] (read-out: AC50), above 30 µM in series [3], above 30 µM in series [9] and 4.5 µM in series [10].
`CO[C@]12C[C@@H](COC(=O)c3cncc(Br)c3)CN(C)[C@@H]1Cc1cn(C)c3cccc2c13` [NICERGOLINE]: the AC50 in series [5] (read-out: AC50) was 0.13 µM.
Turning to `Cc1cc(C(C)(C)C)c(O)c(C)c1CC1=NCCN1` [OXYMETAZOLINE], the half-maximal activity concentration (AC50) was above 30 µM in series [1]; above 30 µM in series [4]; above 30 µM in [5] (read-out: AC50); 23 µM in series [3]; above 30 µM in [10].
As to `CC1(C)CCC(CN2CCN(c3ccc(C(=O)NS(=O)(=O)c4ccc(NCC5CCOCC5)c([N+](=O)[O-])c4)c(Oc4cnc5[nH]ccc5c4)c3)CC2)=C(c2ccc(Cl)cc2)C1` [VENETOCLAX], the AC50 in series [1] is 11 µM; in [4], above 30 µM; in series [5] (read-out: AC50) it was above 30 µM; in series [10], above 30 µM.
As for `NC(=O)OCC(COC(N)=O)c1ccccc1` [FELBAMATE], the AC50 was above 10 µM in [6]; above 10 µM in series [1]; above 30 µM in [4]; above 10 µM in series [7]; above 10 µM in series [8]; above 30 µM in series [5] (read-out: AC50). In addition, the AC50 in series [3], in series [9] and in series [10] was above 10 µM each time.
Take `COc1ccc(CCNCC(O)COc2cccc(C)c2)cc1OC` (stereo not given) [BEVANTOLOL]: the half-maximal activity concentration (AC50) in series [6] is above 10 µM; in [1], above 30 µM; in [2], above 30 µM; in series [4], above 30 µM; in series [7], above 10 µM; in series [8], above 10 µM. The AC50 was 3.41 µM in [5] (read-out: AC50), above 10 µM in series [3], above 10 µM in series [9] and above 10 µM in [10].
Consider `CC(C)(C)NCC(O)COc1cccc2c1CCC(=O)N2` (stereo not given) [CARTEOLOL], for which the concentration at half-maximal activity (AC50) in series [6] was above 10 µM; in series [1] it was above 10 µM; in series [2], above 30 µM; in series [4], above 30 µM; in series [7], above 10 µM; in series [8] it was above 10 µM. For the same compound, the AC50 in series [5] (read-out: AC50) was above 30 µM; in [3], above 10 µM; in series [9] it was above 10 µM; in series [10], above 10 µM.
As to `COc1cccc(C2(O)CCCCC2CN(C)C)c1` (stereo not given) [TRAMADOL], the AC50 in series [6] is above 30 µM; in [1] it was above 10 µM; in [2], above 30 µM; in series [4] it was above 30 µM; in series [7] it was above 30 µM; in series [8] it was above 10 µM. The AC50 in series [5] (read-out: AC50), in series [9] and in series [10] was above 30 µM throughout.
In [5] (human, cellular components), THIMEROSAL came in with an AC50 above 30 µM.
